Experimental data published in patent publication US7133717B2, “Tissue electroperforation for enhanced drug delivery and diagnostic sampling” (Johnson & Johnson Consumer Companies, Inc., priority 1999, dated 2006).

How the values were obtained:
Format in all cases: in vivo
Conditions in all cases: two pigs
[1] = Electroperforation (25 pores/cm^2) followed by passive diffusion of erythropoietin for transdermal delivery, plasma erythropoietin by ELISA
Method: (§1) To evaluate the pore transport pathway created through the stratum corneum of the skin by electroperforation, an in vivo experiment was conducted on the back skin of Yorkshire pigs (female, ˜12 kg) using an electrosurgery apparatus (Surgitron™, Ellman International, Inc., Hewlett, N.Y.). The pigs were immobilized with appropriate anesthetics and analgesics. Electrofulguration current was used with a fine wire electrode (0.26 mm in diameter) and power output setting at between scale 3 to 10. A small pore was created on the surface of the skin by carefully moving the electrode towards the skin until the tip of the electrode almost touched the skin. The electrode was quickly moved away from the skin as soon as an electric arc appeared in the gap between the electrode tip and the skin surface.
An electroperforation procedure was conducted in two pigs similar to that in Example 3, followed by passive diffusion of erythropoietin (20 kU/ml, Procrit®, Ortho Biotech, Inc., Raritan, N.J.) at the treatment site. There were 25 pores/cm^2 generated with electroperforation on each pig. The drug chamber based over the electroperforation-treated skin area contained 0.5 ml of erythropoietin solution. Blood samples were collected for erythropoietin analysis with an ELISA method. The erythropoietin delivery procedure was carried out for 7 hours. […]

pigs [2] = assay: Electroperforation (39 pores/cm^2) followed by passive diffusion of insulin for transdermal delivery, blood glucose monitoring
Method: as §1
The electroperforation procedure described in Example 1 was conducted in two pigs with a pore density of 39 pores/cm^2 of the skin and subsequently followed by transdermal insulin delivery with passive diffusion. An insulin-containing chamber was immediately placed onto the electroperforation-treated skin. […] Blood glucose of the pigs was monitored by obtaining blood samples of the ear vein, which were analyzed using two blood glucose analyzers separately to assure the accuracy (One Touch® Basic, LifeScan, Inc., Milpitas, Calif.).

pigs [3] = assay: Electroperforation (9 pores/cm^2) followed by passive diffusion and iontophoresis of insulin for transdermal delivery, blood glucose monitoring
Method: as §1
An electroperforation procedure was conducted in two pigs similar with a pore density of 9 pores/cm^2 on the skin and subsequently was followed by transdermal insulin delivery. The purpose of using a lower pore density in this experiment was to examine the effect of pore number (e.g., the extent of the transport pathway available) to transdermal insulin delivery. The same insulin-containing chamber and drug application procedures were used in this experiment as those in the Example 2. […]

erythropoietin
plasma erythropoietin concentrations ([1]; one day after the delivery experiment): still above the endogenous basal level
plasma erythropoietin concentration ([1]; passive diffusion, 0.5 ml of 20 kU/ml solution, during the 7 hour delivery until chambers removed): progressive increase

insulin
blood glucose reduction (pigs [2]; 0.5 ml insulin solution 100 U/ml, contact area 2.3 cm^2): greater than 50 % of the basal level
blood glucose levels (pigs [2]; from the onset of insulin delivery): declined rather quickly
blood glucose reduction (pigs [3]; during iontophoresis, 4 mA DC, two 30-minute sections at 1.5 hour and 3 hour): rapid blood glucose reduction
blood glucose levels (pigs [3]; first 1.5 hours, passive diffusion only): did not decline
